Source: patent US20010051654A1, “Treatment of inflammatory and autoimmune diseases” (priority 1997, published 2001)
Read-outs that look alike come from different tables or passages of the source.

Key:
[1] = design: species or system Sprague-Dawley rats; conditions: rat, in vivo, iv
Protocol: A single dose intravenous pharmacokinetics study with N-(pyrazine)carbonyl-L-phenylalanine-L-leucine boronic acid (1) was conducted in Sprague-Dawley rats (140 to 280 g). Animals were assigned to 3 groups (6/sex in Groups 1 and 2; 9/sex in Group 3). Animals in groups 1, 2, and 3 received 0.03, 0.1 or 0.3 mg/kg of 1, respectively, in the same dose volume.
Blood samples (approximately 1.0 mL) were collected from the jugular vein of animals pre-dose and at approximately 10 and 30 min and 1, 3 and 24 h post-dose on Day 1.

20 S proteasome [2] = experiment: Ex vivo 20 S proteasome activity in peripheral white blood cells of mice
Protocol: (§1) This preparation procedure applies to blood samples collected from mammals, particularly rats, mice, dogs, pigs, rabbits, non-human primates, or human subjects. Peripheral white blood cells are separated from blood samples upon collection for storage at about −70° C. until tested. To avoid interference with the assay due to the presence of endogenous proteasome inhibitors, it is important that red blood cells be rigorously excluded.
The blood sample is diluted 1:1 (v/v) with sterile saline, and the blood-saline mixture is layered over NYCOPREP™ separation medium (GIBCO BRL Products) in a 14×75 mm polystyrene test tube at a ratio of approximately 2:1 blood:NYCOPREP™. The sample is centrifuged at 500 x g for approximately 30 minutes at room temperature. The top layer is removed, leaving ˜2-3 mm of the cell band between the top and bottom layers. The remaining cell band is transferred by pipette to a clean centrifuge tube. The cell band is washed with 3 mL of cold phosphate-buffered saline and centrifuged at 400 x g for 5 minutes at 4° C. The supernatant is poured off and the pellet is resuspended in ˜1 mL of cold phosphate-buffered saline. The suspension is transferred to a 1.5 mL Eppendorf microfuge tube and microfuged at 6600 x g for approximately 10 minutes at 4° C. […]
The amount of 20 S proteasome activity in the test sample is calculated according to the following formula: [formula] […]

20 S proteasome [3] = experiment: Ex vivo 20 S proteasome activity in peripheral white blood cells of rats
Protocol: as §1
The blood sample is diluted 1:1 (v/v) with sterile saline, and the blood-saline mixture is layered over NYCOPREP™ separation medium (GIBCO BRL Products) in a 14×75 mm polystyrene test tube at a ratio of approximately 2:1 blood:NYCOPREP™. The sample is centrifuged at 500 x g for approximately 30 minutes at room temperature. The top layer is removed, leaving ˜2-3 mm of the cell band between the top and bottom layers. The remaining cell band is transferred by pipette to a clean centrifuge tube. The cell band is washed with 3 mL of cold phosphate-buffered saline and centrifuged at 400 x g for 5 minutes at 4° C. The supernatant is poured off and the pellet is resuspended in ˜1 mL of cold phosphate-buffered saline. The suspension is transferred to a 1.5 mL Eppendorf microfuge tube and microfuged at 6600 x g for approximately 10 minutes at 4° C. The supernatant is aspirated off and the cell pellet is stored at −70° C.±10° C.
Measurement of this rate in the absence and in the presence of an inhibitor allows a determination of how enzyme is bound by inhibitor. This assay is used to measure 20 S proteasome activity in peripheral white blood cells in mammals, particularly rats, mice, dogs, pigs, rabbits, non-human primates, or human subjects.
The amount of 20 S proteasome activity in the test sample is calculated according to the following formula: [formula]
Dose formulations of 1 were prepared daily during the course of the study. Dilutions were prepared from a stock solution. The stock solution of 1 was made up in 98% saline (0.9%), 2% ethanol with 0.1% ascorbic acid. Dilutions of the stock were made in the same vehicle.
Drugs were administered in vehicle intravenously (IV) using a dose volume of 100 μL per mouse or 1.0 mL/kg in rats. Control groups were administered with the vehicle (98% saline [0.9%], 2% ethanol, 0.1% ascorbic acid). Animals were dosed with 1 as a single IV bolus given either once or on multiple occasions.
Following IV dosing with 1, blood was withdrawn at various time points and peripheral white blood cells were isolated.
Blood samples were collected at 1.0, 24 and 48 h following administration of 1.
In an additional repeat dose study, male Sprague-Dawley rats (250 to 450 g; n=6 per group) were treated with twice weekly intravenous doses of 1 (0.01 to 0.35 mg/kg/day in a dose volume of 1.0 mL/kg) for two weeks. The vehicle was 0. […] Blood samples were collected 1.0 h after the last dose for evaluation of 20 S proteasome activity.

20 S proteasome [4] = biological target: T1, 20 S proteasome (Rattus norvegicus, UniProt P28075)
T1 sequence (P28075 60-263): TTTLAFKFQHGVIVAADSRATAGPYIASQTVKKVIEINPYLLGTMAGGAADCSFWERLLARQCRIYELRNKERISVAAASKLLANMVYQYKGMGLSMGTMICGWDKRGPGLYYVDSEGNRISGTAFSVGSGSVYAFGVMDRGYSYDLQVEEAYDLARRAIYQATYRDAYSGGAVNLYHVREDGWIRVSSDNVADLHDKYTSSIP
Protocol: In two studies, female Wistar rats (150 to 200 g) were administered a single intravenous dose of 1 (0.03, 0.1 and 0.3 mg/kg in a dose volume of 1.0 mL/kg). […] Tissue samples were collected from liver and brain at 1.0, 24 and 48 h following administration for evaluation of 20 S proteasome activity.
In a third study, male Sprague-Dawley rats (250 to 450 g) were administered a single intravenous dose of 1 (0.1 and 0.3 mg/kg in a dose volume of 1.0 mL/kg). […] Blood and tissue samples were collected 1.0 h following administration for evaluation of 20 S proteasome activity. The tissues collected were brain, colon, liver, muscle (gastrocnemius), prostate and testes.

20 S proteasome [5] = experiment: Ex vivo 20 S proteasome activity in primate white blood cells; design: species or system Cynomolgus monkeys
Protocol: (§2) Male and female Cynomolgus monkeys (2.2 to 3.5 kg) were assigned to four groups (5/sex/group). Each group received 0 (vehicle control), 0.045, 0.067 or 0.100 mg/kg/dose of 1 as a single intravenous injection in a dose volume of 0.3 mL/kg twice weekly for 4 weeks (days 1, 5, 8, 12, 15, 19, 22 and 26). […] Three males from the control, low- and mid-dose groups, two high-dose males, and three females/group were sacrificed at the end of treatment on Day 27. Two animals/sex/group were designated as recovery animals and received treatment for 4 weeks followed by 2 weeks of recovery; they were sacrificed on Day 41.
(§3) Blood was collected for 20 S proteasome activity determination prior to treatment, at 1.0 h after dosing on Days 1, 8, 15 and 22, and at 1.0 h prior to dosing on Days 5, 12, 19 and 26; and on Days 31, 34, 38, and 41 (recovery sacrifice animals).

20 S proteasome [6] = experiment: Chymotryptic and tryptic assays in rat white blood cell lysates; assay type: biochemical; conditions: fit, FIG. 19
From the text: Data was fitted as in Example 10, to give kc/kt=17.6±and βt=1.1±0.2 (FIG. 19).

20 S proteasome [7] = experiment: Chymotryptic to tryptic activity ratio assay, human samples; assay type: biochemical
From the text: βt=activation factor determined upon titration of the proteasome inhibitor. For the proteasome inhibitor 1, βt=1.28 in human samples.

[8] = Twice weekly intravenous dosing for 4 weeks in Cynomolgus monkeys, clinical condition; assay type: in vivo; conditions: one high-dose male (0.100 mg/kg/dose), Day 26 after receiving 8 doses
Protocol: as §2, §3

[9] = tested on: 20 S proteasome from rabbit reticulocytes; experiment: Chymotryptic and tryptic activities of purified 20 S proteasome from rabbit reticulocytes
Protocol: Chymotryptic and tryptic assays were performed as described in Examples 3 and 5 at increasing concentrations of the proteasome inhibitor 1.

[10] = tested on: actively sensitized Brown Norway rats; experiment: Allergen-induced pulmonary leukocyte accumulation in actively sensitized Brown Norway rats (3b alone); assay type: in vivo
Protocol: Rats. Male Brown Norway rats were supplied by Harlan Olac Limited (Bicester, Oxon, UK) and delivered within the weight range of 180-200 g. Following acclimatization for at least five days, animals were actively sensitized over a 3-week period and were within the weight range 250-300 g at the time of allergen exposure. Food and water were provided ad libitum.
Sensitization. Ovalbumin (OA; 10 μg) mixed with aluminum hydroxide gel (10 mg) will be injected (0.5 mL, i.p.) into Brown Norway rats and repeated 7 and 14 days later.
Drug Treatment. On day 21, sensitized rats were anaesthetized (halothane 5% in O2) and 3b, dexamethasone, or vehicle (lactose) was instilled via a cannula placed directly into the trachea at 1 hour prior to OA exposure. This procedure was repeated at 24 hours and 48 hours after OA exposure.
Challenge. Following recovery, sensitized animals were restrained in plastic tubes and exposed (60 min) to an aerosol of OA (10 mg/mL) using a nose-only exposure system. Animals were sacrificed 72 hours later with pentobarbital (250 mg/kg i.p.).
Analysis. The lungs were lavaged using 3 aliquots (4 mL) of Hank's solution (HBSS x 10, 100 mL; EDTA 100 mM, 100 mL; HEPES 1M, 10 mL made to […] with water); recovered cells were pooled and the total volume of recovered fluid was adjusted to 12 mL by addition of Hank's solution. Total cells were counted (Sysmex Microcell Counter F-500, TOPA Medical Electronics Ltd., Japan). Smears were made by diluting recovered fluid (to approximately 10^6 cells/mL) and spinning an aliquot (100 μL) in a centrifuge (Cytospin, Shandon, UK). Smears were air dried, fixed using a solution of fast green in methanol (2 mg/L) for 5 seconds and stained with eosin G (5 seconds) and thiazine (5 seconds) (Diff-Quik, Baxter Dade Ltd, Switzerland) in order to differentiate eosinophils, neutrophils, macrophages and lymphocytes. A total of 500 cells per smear were counted by light microscopy under oil immersion (x 1000).

[11] = alternate daily IV for 14 days, 24 h after last dose
[12] = daily IV for 7 days, 24 h after last dose
[13] = once weekly IV for 8 weeks, 24 h after last dose
[14] = 1.0 h after single IV 0.1 and 0.3 mg/kg, male Sprague-Dawley rats
[15] = 0.1 and 0.3 mg/kg i.t. 1 h before, 24 h and 48 h after OA, 72 h
[16] = dose dependence, 72 hours after aerosolized ovalbumin

## CC(C)C[C@H](NC(=O)[C@H](Cc1ccccc1)NC(=O)c1cnccn1)B(O)O [Compound 1, N-(pyrazine)carbonyl-L-phenylalanine-L-leucine boronic acid]
[1]
  clearance from the blood: rapidly cleared
[1]; 0.3 mg/kg
  time to peak concentration (Tmax): ~10 min
20 S proteasome [2]; 1.0 h after single IV 0.1 to 3.0 mg/kg, all dose groups
  20 S proteasome activity in white blood cells: significant (p<0.05) dose-related decrease
20 S proteasome [2]; 24 h after single IV 0.1 to 3.0 mg/kg
  20 S proteasome activity in white blood cells: starts to recover
20 S proteasome [3]; 1.0 h after single IV 0.03 to 0.3 mg/kg, female Wistar rats
  20 S proteasome activity in white blood cells: significant (p<0.05) dose-related decrease
20 S proteasome [3]; 24 h after single IV 0.03 to 0.3 mg/kg, female Wistar rats
  20 S proteasome activity in white blood cells: smaller, but remained significant (p <0.05) in the higher dose groups
20 S proteasome [3]; 48 h after single IV 0.03 to 0.3 mg/kg, female Wistar rats
  20 S proteasome activity in white blood cells: no longer significantly decreased
20 S proteasome [3]; [11]
  20 S proteasome activity in white blood cells: significant dose-related decrease
  dose groups with significant (p<0.05) decrease in 20 S proteasome activity: > 0.2 mg/kg
20 S proteasome [3]; [12]
  20 S proteasome activity in white blood cells: dose-related decrease
  doses with significant inhibition of 20 S proteasome activity: > 0.05 mg/kg
20 S proteasome [3]; [13]
  20 S proteasome activity in white blood cells: significant (p<0.05) dose-related decrease
  dose groups with significant (p<0.05) decrease in 20 S proteasome activity: > 0.1 mg/kg
20 S proteasome [3]; twice weekly IV for 2 weeks (4 doses, 0.01 to 0.35 mg/kg/day), 1.0 h after last dose, male Sprague-Dawley rats
  20 S proteasome activity in white blood cells: dose-related decrease
20 S proteasome [3]; twice weekly IV for 2 weeks, 1.0 h after last dose, male Sprague-Dawley rats
  dose groups with significant (p<0.05) decrease in 20 S proteasome activity: > 0.03 mg/kg
20 S proteasome [4]; 1.0 h after single IV 0.03, 0.1, 0.3 mg/kg, female Wistar rats
  20 S proteasome activity in rat liver: significant (p<0.05) dose-related decrease
20 S proteasome [4]; [14]
  20 S proteasome activity in peripheral white blood cells, colon, liver, muscle (gastrocnemius), and prostate: Significant (p<0.05) dose-related decreases
  20 S proteasome inhibition in brain and testes: No 20 S proteasome inhibition
20 S proteasome [4]; 24 h after single IV, high dose group 0.3 mg/kg, female Wistar rats
  20 S proteasome activity in rat liver: smaller, but remained significant (p<0.05) in the high dose group
20 S proteasome [4]; 48 h after single IV, female Wistar rats
  20 S proteasome activity in rat liver: returned to baseline
20 S proteasome [4]; inferred from absent 20 S proteasome inhibition, female Wistar rats
  penetration into brain tissue: lack of penetration
20 S proteasome [4]; inferred from absent 20 S proteasome inhibition, male Sprague-Dawley rats
  penetration into brain and testes: lack of 1 penetration
20 S proteasome [4]; single IV 0.03, 0.1, 0.3 mg/kg, female Wistar rats
  20 S proteasome inhibition in brain tissue: No 20 S proteasome inhibition
20 S proteasome [5]; 1.0 h after dosing, 0.045, 0.067 or 0.100 mg/kg/dose IV twice weekly for 4 weeks
  white blood cell 20 S proteasome activity: significant and dose-related decrease
20 S proteasome [5]; 72 hours after dosing, prior to the subsequent dose
  white blood cell 20 S proteasome activity: recovered
20 S proteasome [5]; high-dose male at sacrifice on Day 26 after 8 doses
  white blood cell 20 S proteasome activity of the moribund animal: low residual 20 S proteasome activity
20 S proteasome [6]
  βt (activation factor of tryptic activity): 1.1±0.2
20 S proteasome [7]
  βt (activation factor determined upon titration of the proteasome inhibitor): 1.28
[8]
  clinical condition: sacrificed in moribund condition
[9]
  βc (factor for chymotryptic activity of the E•I complex; 0 = total inhibition): 0
[9]; increasing concentrations of 1
  chymotryptic activity (FIG. 17): fully inhibits
  tryptic activity (FIG. 17): activation
[9]; purified 20 S proteasome from rabbit reticulocytes, fit, FIG. 18
  βt (activation factor of tryptic activity): 1.38±0.05

## CCCC1C(=O)NC2(C(O)C(C)C)OC(=O)C12 (stereo not drawn) [Compound 3b, 7-n-propyl-clasto-lactacystin β-lactone]
[10]; [15]
  influx of eosinophils in bronchoalveolar lavage fluid: reduced
  influx of total leukocytes in bronchoalveolar lavage fluid: reduced
[10]; all doses i.t., 72 h after OA
  lymphocyte count in bronchoalveolar lavage fluid: significant decrease
[10]; [16]
  eosinophil count in bronchoalveolar lavage fluid (FIG. 4): dose dependent inhibition
  leukocyte count in bronchoalveolar lavage fluid (FIG. 3): dose-dependent reduction
